Experiments:
Format in all cases: cell-based
[1] = biological target: T1, P2X2 receptor (Rattus norvegicus, UniProt P49653); experiment: UV photo-cross-linking, then whole cell patch clamp ([…] reduction of ATP current)
T1 construct: gene P2rx2; rat P2X2 transiently expressed in HEK293 cells
T1 sequence (P49653 1-472): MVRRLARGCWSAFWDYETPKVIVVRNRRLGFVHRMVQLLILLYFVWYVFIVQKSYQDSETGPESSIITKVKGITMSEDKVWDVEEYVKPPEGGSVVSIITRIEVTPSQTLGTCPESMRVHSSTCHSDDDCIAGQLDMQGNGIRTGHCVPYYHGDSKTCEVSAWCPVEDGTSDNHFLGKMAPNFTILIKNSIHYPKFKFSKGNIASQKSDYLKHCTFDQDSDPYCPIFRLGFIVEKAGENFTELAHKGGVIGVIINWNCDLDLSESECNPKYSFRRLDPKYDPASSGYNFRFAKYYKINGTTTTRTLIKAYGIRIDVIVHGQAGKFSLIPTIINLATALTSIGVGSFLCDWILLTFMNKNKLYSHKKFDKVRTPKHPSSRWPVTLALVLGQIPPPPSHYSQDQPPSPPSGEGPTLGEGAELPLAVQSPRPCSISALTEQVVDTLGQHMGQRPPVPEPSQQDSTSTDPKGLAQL

[2] = biological target: T2, P2X4 receptor (Homo sapiens, UniProt Q99571); experiment: as above
T2 construct: gene P2RX4; human P2X4 receptor stably expressed in HEK293 cells
T2 sequence (Q99571 1-388): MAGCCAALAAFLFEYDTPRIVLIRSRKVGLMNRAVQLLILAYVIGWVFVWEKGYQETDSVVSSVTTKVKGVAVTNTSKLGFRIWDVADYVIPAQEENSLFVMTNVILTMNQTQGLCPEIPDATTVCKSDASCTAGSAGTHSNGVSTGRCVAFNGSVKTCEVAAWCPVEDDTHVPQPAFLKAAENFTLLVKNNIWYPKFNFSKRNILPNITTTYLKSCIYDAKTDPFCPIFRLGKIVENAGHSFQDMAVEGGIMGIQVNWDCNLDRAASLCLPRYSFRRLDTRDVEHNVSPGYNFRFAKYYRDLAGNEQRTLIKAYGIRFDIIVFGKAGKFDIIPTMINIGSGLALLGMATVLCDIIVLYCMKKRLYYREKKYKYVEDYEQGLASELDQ

[3] = biological target: T3, P2X1 receptor (Homo sapiens, UniProt P51575); experiment: UV photo-cross-linking of radiolabelled analogue, immunoprecipitation and autoradiography with ATP competition; patch clamp agonism
T3 construct: gene P2RX1; human P2X1 receptor stably expressed in HEK293 cells
T3 sequence (P51575 1-399): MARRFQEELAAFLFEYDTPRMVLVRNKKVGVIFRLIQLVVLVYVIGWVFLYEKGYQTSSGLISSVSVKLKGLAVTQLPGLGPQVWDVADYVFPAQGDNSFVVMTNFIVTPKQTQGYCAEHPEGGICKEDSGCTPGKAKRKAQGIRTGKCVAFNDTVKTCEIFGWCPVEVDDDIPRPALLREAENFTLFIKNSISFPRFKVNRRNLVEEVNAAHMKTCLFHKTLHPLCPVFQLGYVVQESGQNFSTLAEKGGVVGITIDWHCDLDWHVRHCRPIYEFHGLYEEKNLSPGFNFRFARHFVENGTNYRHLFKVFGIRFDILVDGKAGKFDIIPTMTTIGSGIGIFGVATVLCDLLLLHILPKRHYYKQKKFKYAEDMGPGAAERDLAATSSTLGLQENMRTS
Description: UV photo-cross-linking of radiolabelled analogue, immunoprecipitation and autoradiography with ATP competition; patch clamp agonism on P2X1 receptor | It confirms the identification of 2-azido ATP as a cross-linking compound which directly binds to the P2X1 receptor.

[4] = biological target: T4, P2X3 receptor (Rattus norvegicus, UniProt P49654); experiment: UV photo-cross-linking, then whole cell patch clamp ([…] reduction of ATP current)
T4 construct: gene P2rx3; rat P2X3 transiently expressed in HEK293 cells
T4 sequence (P49654 1-397): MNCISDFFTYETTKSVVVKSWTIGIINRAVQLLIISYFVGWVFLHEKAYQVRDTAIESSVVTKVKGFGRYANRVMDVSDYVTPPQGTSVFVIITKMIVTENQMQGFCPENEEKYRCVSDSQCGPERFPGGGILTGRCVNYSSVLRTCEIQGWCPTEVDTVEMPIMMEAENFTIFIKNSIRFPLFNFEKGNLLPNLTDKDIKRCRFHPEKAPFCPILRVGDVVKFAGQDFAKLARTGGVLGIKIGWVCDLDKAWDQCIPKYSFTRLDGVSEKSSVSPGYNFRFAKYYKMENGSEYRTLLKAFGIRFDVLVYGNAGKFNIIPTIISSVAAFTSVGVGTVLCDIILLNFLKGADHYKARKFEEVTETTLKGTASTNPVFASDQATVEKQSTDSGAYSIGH

[5] = biological target: T4, P2X3 receptor; experiment: whole cell patch clamp, agonist current at approximate EC50 concentration
[6] = biological target: T3, P2X1 receptor; experiment: competition with radiolabelled photo-reactive ATP analogues; whole cell patch clamp agonism
[7] = biological target: T1, P2X2 receptor; experiment: whole cell patch clamp, agonist current at approximate EC50 concentration
[8] = biological target: T3, P2X1 receptor; experiment: whole cell patch clamp; partial agonist; UV cross-linking with ATP/suramin protection

Compound: [N-]=[N+]=Nc1nc(N)c2ncn([C@@H]3O[C@H](COP(=O)(O)OP(=O)(O)OP(=O)(O)O)[C@@H](O)[C@H]3O)c2n1 [A, 2-azido ATP]
- % reduction [1]: 80 % reduction
- % reduction [2]: 45 % reduction
- EC50 [3]: ~3 µM
- % reduction [4]: 83 % reduction

Compound: Nc1ncnc2c1ncn2[C@@H]1O[C@H](COP(=O)(O)OP(=O)(O)OP(=O)(O)O)[C@@H](O)[C@H]1O [ATP]
- EC50 [5]: ~ 1 μM
- EC50 [6]: ~1000 nM
- EC50 [7]: ~ 10 μM

Compound: Nc1ncnc2c1ncn2[C@@H]1O[C@H](COP(=O)(O)OP(=O)(O)OP(=O)(O)O)[C@@H](OC(=O)c2ccc(C(=O)c3ccccc3)cc2)[C@H]1O [C, 2′,3′-O-(4-benzoylbenzoyl)-ATP]
- whole cell patch clamp; partial agonist; UV cross-linking with ATP/suramin prote [8]: These results suggest that the BzATP is acting to cross-link to the P2X1 receptor at the ATP binding site.

— article PMC2613953, “Characterisation of ATP analogues to cross-link and label P2X receptors” (Neuropharmacology, 2009)
